Data on one substance can be found in US10583119B2, “Compounds, compositions and methods for making the same” (Signum Biosciences, Inc., priority 2008, dated 2020).

Assay [1] has as its system alpha-synuclein phosphorylated at Ser129. As to the kind of experiment: Effect of PP2A methylation on alpha-synuclein dephosphorylation. It counts as biochemical, human. On the procedure:
Concentrated samples of the methylated and unmethylated AC dimer of PP2A were each serially diluted to final concentrations of 200 nM, 100 nM, 50 nM, 25 nM, and 12 nM. A buffer sample (with 0 nM PP2A) was used as the negative control. The dephosphorylation assay and western blotting were performed as described above in Example 31 Western blots were scanned on a Storm Scanner (Molecular Dynamics) and band intensities quantified with Image Quant software. The relative phosphorylation levels were calculated with the following formula: Relative phosphorylation level (%)=Signal of Sample/Signal of Negative Control*100%. Regression curves of relative phosphorylation levels as a function of PP2A concentration were plotted, and the EC50 values for methylated and unmethylated PP2A were estimated using the SigmaPlot program. The EC50 is a measure of phosphatase activity or dephosphorylation activity of PP2A toward phosphorylated alpha-synuclein. Specifically, it is the concentration of the AC dimer required to achieve 50% dephosphorylation of phosphorylated alpha-synuclein. […] Specifically, methylation reduces the EC50 value of PP2A AC dimer from ˜60 nM to ˜20 nM.

Assay [2] has as its system serine 129 phosphorylated alpha-synuclein. Description: Dephosphorylation assay of human alpha-synuclein by PP2A and PP1. It counts as biochemical. The note with it: Western blot. Here is the method:
Dephosphorylation Assay of Human a Synuclein by PP2A and PP1. […] PP2A or PP1 (serial dilutions of 200 nM, 100 nM, 50 nM, 25 nM, 12 nM, and O nM as a negative control) were incubated with serine 129 phosphorylated alpha-synuclein in MOPS buffer. The reactions were stopped by adding 5×SDS sample buffer. Levels of phosphorylated-alpha-synuclein were assessed by western blotting using an anti-phospho-Ser 129 antibody. […] Specifically, at 200 nM concentration, PP2A dephosphorylates more than 95% of the serine 129 phosphorylated alpha-synuclein.
On the technique in general: Immunoblotting shows a protein as a band on a membrane.

Usually EC50 stands for the concentration giving half of the maximal effect. Read a low EC50 as greater potency.

For the substance “PP2A: Protein phosphatase 2A, AC dimer (unmethylated or methylated), used as the enzyme dephosphorylating alpha-synuclein”, the EC50 was roughly 20 nM in assay [1] (methylated AC dimer) and roughly 60 nM in assay [1] (unmethylated AC dimer). Besides, in assay [2] (200 nM phosphatase), the “dephosphorylation of serine 129 phosphorylated alpha-synuclein” value is listed as “more than 95%”. In assay [2] (12-200 nM phosphatase), the “dephosphorylation of phosphorylated alpha-synuclein (concentration dependence)” value is listed as “concentration dependent manner”.
